Laboratory results from US20240287138A1, “CYCLIC PEPTIDES FOR INHIBITING TNF RECEPTOR 1 ACTIVITY” (Merck Sharp & Dohme LLC, priority 2023, published 2024).
Numbered stars: 1 amine (or outer) side, 2 acyl side, 3 side chain; on linkers, the order of the positions; unused ones are H or OH. Bridge positions count the residues as written; N and C are the ends. Square brackets hold non-standard residues; d marks the D form. Peptide text beside a SMILES is read from it. * marks the point of attachment. Trp(βS-Me,7-OMe) = COc1cccc2c([C@H](C)[C@H](N)C(=O)O)c[nH]c12; Ala(1-bicyclo(1.1.1)pentyl) = N[C@@H](CC12CC(C1)C2)C(=O)O; X34 = O=C([C@H](Cc1c[nH]c2c(Cl)c(F)ccc12)N[*:1])[*:2]; Trp(7-CN) = N#Cc1cccc2c(C[C@H](N)C(=O)O)c[nH]c12; Trp(7-Cl) = N[C@@H](Cc1c[nH]c2c(Cl)cccc12)C(=O)O; Phe(4-CONH2) = NC(=O)c1ccc(C[C@H](N)C(=O)O)cc1; Phe(4-COOH) = N[C@@H](Cc1ccc(C(=O)O)cc1)C(=O)O; 4Pal(3S-Me) = C[C@@H](c1ccncc1)[C@H](N)C(=O)O; Trp(7-aza) = N[C@@H](Cc1c[nH]c2ncccc12)C(=O)O; Trp(1-Me) = Cn1cc(C[C@H](N)C(=O)O)c2ccccc21; Pip(5R-OH) = O=C(O)[C@@H]1CC[C@@H](O)CN1; X1 = O=C([C@@H]1CC[C@H](N[*:1])C1)[*:2]; Pip(4-aza) = O=C(O)[C@@H]1CNCCN1; 4Pal = N[C@@H](Cc1ccncc1)C(=O)O; NMeE = CN[C@@H](CCC(=O)O)C(=O)O; dHyp = O=C(O)[C@H]1C[C@H](O)CN1; Ahp(2) = CCCCC[C@H](N)C(=O)O; NMeS = CN[C@@H](CO)C(=O)O; hSer = N[C@@H](CCO)C(=O)O; αMeS = C[C@](N)(CO)C(=O)O; Carboxymethyl = O=C(O)C*; Nle = CCCC[C@H](N)C(=O)O; NEtG = CCNCC(=O)O; Sar = CNCC(=O)O

Columns and labels:
[1] = target: T1, human soluble TNFR1 (sTNFR1) (Homo sapiens, UniProt P19438); assay: Human sTNFR1-peptide displacement assay (LanthaScreen Eu TR-FRET binding assay)
T1 construct: made in house; host or cells: Sf21 (baculovirus)
T1 sequence (P19438 with tags, fused parts or gaps): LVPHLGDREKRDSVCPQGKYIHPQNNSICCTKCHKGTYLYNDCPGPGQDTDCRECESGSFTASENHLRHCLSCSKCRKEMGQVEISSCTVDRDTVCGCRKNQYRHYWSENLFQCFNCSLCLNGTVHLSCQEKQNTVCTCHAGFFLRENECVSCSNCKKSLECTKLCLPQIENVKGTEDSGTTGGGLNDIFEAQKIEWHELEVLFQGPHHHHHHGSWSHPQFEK
Outline: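 Readout is the 665/615 nm TR-FRET ratio (Eu anti-His donor, streptavidin-Alexa647 acceptor), normalized to DMSO and saturating displacer, fit by Morrison-based five-parameter logistic for Kd^app. His-tagged sTNFR1 (1-211) prebound to 100 nM biotinylated peptide SEQ ID NO.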

[2] = target: T2, human TNFR1 extracellular domain (ECD) protein (Homo sapiens, UniProt P19438); assay: SPR binding affinity to captured human TNFR1 ECD
T2 construct: HRV 3C protease cleavage site (C); 6His (C, cleaved yes); made in house; host or cells: Sf21 insect cells (baculovirus), secreted
T2 sequence (P19438 30-211): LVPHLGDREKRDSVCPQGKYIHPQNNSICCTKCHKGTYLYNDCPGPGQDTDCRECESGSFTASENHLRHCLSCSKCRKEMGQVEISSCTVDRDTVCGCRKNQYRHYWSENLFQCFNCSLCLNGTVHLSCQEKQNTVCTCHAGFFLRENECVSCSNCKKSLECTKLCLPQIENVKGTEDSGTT
Outline: (§1)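 Peptides are tested against captured biotin-tagged human TNFR1 ECD, with parallel TNFR2 ECD binding to check selectivity. Buffer: 10 mM HEPES pH 7.4, 150 mM NaCl, 3 mM EDTA, 0.05% P20, 2% DMSO.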

[3] = target: T3, human TNFR2 ECD protein (Homo sapiens, UniProt P20333); assay: SPR off-target binding (selectivity) to human TNFR2 ECD
T3 construct: HRV 3C protease cleavage site (C); 6His (C, cleaved yes); made in house; host or cells: Sf21 insect cells (baculovirus), secreted
T3 sequence (P20333 23-257): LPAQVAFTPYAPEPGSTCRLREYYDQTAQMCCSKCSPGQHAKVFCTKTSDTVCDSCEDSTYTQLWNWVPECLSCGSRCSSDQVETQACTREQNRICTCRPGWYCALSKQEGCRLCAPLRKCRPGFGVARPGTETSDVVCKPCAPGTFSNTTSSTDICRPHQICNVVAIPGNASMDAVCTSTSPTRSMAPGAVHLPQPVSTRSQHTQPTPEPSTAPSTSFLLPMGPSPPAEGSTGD
Outline: as §1

[4] = target: T4, TNFα-induced NF-κB signal transduction pathway (TNFR1 signaling) in THP-1 cells (Homo sapiens, UniProt P19438); assay: THP-1 Lucia NF-κB reporter cell assay, inhibition of TNFα-induced NF-κB signaling; format: cell-based; details: THP-1 NF-κB Lucia reporter cells, 10 ng/mL TNFα, 16-18 h, secreted luciferase; read-out: THP-1 IC50
T4 sequence (P19438 30-455): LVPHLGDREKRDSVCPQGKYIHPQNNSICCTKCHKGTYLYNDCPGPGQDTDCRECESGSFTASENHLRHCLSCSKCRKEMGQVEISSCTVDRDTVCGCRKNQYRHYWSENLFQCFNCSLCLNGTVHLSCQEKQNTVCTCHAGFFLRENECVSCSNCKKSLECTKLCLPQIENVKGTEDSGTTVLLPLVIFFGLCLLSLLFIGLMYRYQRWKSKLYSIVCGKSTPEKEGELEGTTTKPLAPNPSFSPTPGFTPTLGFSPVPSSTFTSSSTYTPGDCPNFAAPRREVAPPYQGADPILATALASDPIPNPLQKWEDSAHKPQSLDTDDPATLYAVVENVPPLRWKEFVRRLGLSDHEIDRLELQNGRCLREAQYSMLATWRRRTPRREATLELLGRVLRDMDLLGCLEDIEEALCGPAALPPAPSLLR
Outline: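 Macrocyclic peptides were preincubated 1 h at 37 °C with THP-1 NF-κB-Lucia reporter cells (20,000 cells/well) in antibiotic-free RPMI 1640/10% FBS, then stimulated with 10 ng/mL human TNFα overnight (16-18 h). Secreted luciferase in supernatant was read by luminescence; IC50 from 4-parameter logistic fits.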

Row | Structure (SMILES) | Kd [1] | Kd [2] | Kd [3] | IC50 [4] | IC50 [1]
1 | COCC[C@@H]1NC(=O)[C@@H]2CC[C@@H](C2)NC(=O)[C@H]([C@@H](C)c2c[nH]c3c(OC)cccc23)NC(=O)CN(C)C(=O)[C@H](Cc2ccc(C(N)=O)cc2)NC(=O)[C@H](Cc2ccc(C(N)=O)cc2)NC(=O)[C@](C)(CO)NC(=O)[C@H](Cc2c[nH]c3c(C#N)cccc23)NC(=O)[C@H](Cc2ccc(C(=O)O)cc2)NC(=O)[C@H](CC(N)=O)NC(=O)[C@H]2C[C@H](O)CN2C(=O)[C@H](Cc2c[nH]c3ccccc23)NC(=O)[C@@H]2CC[C@@H](O)CN2C(=O)[C@H](Cc2ccncc2)NC1=O [SEQ ID NO. 194] (cyclo([4Pal][Pip(5R-OH)]W[dHyp]N[Phe(4-COOH)][Trp(7-CN)][αMeS][Phe(4-CONH2)][Phe(4-CONH2)][Sar][Trp(βS-Me,7-OMe)][X1][hSer](Me))) | 0.05 nM | 0.04 nM | > 1000 nM |  | 
2 | CCCCC[C@@H]1NC(=O)[C@@H]2CC[C@@H](C2)NC(=O)[C@H]([C@@H](C)c2c[nH]c3c(OC)cccc23)NC(=O)CN(C)C(=O)[C@H](Cc2ccc(C(N)=O)cc2)NC(=O)[C@H](Cc2ccc(C(N)=O)cc2)NC(=O)[C@](C)(CO)NC(=O)[C@H](Cc2c[nH]c3c(C#N)cccc23)NC(=O)[C@H](Cc2ccc(C(=O)O)cc2)NC(=O)[C@H](CC(N)=O)NC(=O)[C@H]2C[C@H](O)CN2C(=O)[C@H](Cc2c[nH]c3ccccc23)NC(=O)[C@H](CC(N)=O)NC(=O)[C@H]([C@@H](C)c2ccncc2)NC1=O [SEQ ID NO. 92] (cyclo([Ahp(2)][4Pal(3S-Me)]NW[dHyp]N[Phe(4-COOH)][Trp(7-CN)][αMeS][Phe(4-CONH2)][Phe(4-CONH2)][Sar][Trp(βS-Me,7-OMe)][X1])) | 0.24 nM | 0.05 nM | > 1000 nM |  | 
3 | CCCCC[C@@H]1NC(=O)[C@@H]2CC[C@@H](C2)NC(=O)[C@H]([C@@H](C)c2c[nH]c3c(OC)cccc23)NC(=O)CN(C)C(=O)[C@H](Cc2ccc(C(N)=O)cc2)NC(=O)[C@H](Cc2ccc(C(=O)O)cc2)NC(=O)[C@](C)(CO)NC(=O)[C@H](Cc2c[nH]c3c(Cl)c(F)ccc23)NC(=O)[C@H](Cc2ccncc2)NC(=O)[C@H](CC(N)=O)NC(=O)[C@H]2C[C@H](O)CN2C(=O)[C@H](Cc2c[nH]c3ccccc23)NC(=O)[C@@H]2CNCCN2C(=O)[C@H](Cc2ccncc2)NC1=O [SEQ ID NO. 112] (cyclo([4Pal][Pip(4-aza)]W[dHyp]N[4Pal][X34][αMeS][Phe(4-COOH)][Phe(4-CONH2)][Sar][Trp(βS-Me,7-OMe)][X1][Ahp(2)])) | 0.24 nM | 0.03 nM | > 1000 nM |  | 
4 | CCCC[C@@H]1NC(=O)[C@@H]2CC[C@@H](C2)NC(=O)[C@H]([C@@H](C)c2c[nH]c3c(OC)cccc23)NC(=O)CN(C)C(=O)[C@H](Cc2ccc(OCC(=O)O)cc2)NC(=O)[C@H](Cc2ccc(C(N)=O)cc2)NC(=O)[C@](C)(CO)NC(=O)[C@H](Cc2c[nH]c3c(Cl)cccc23)NC(=O)[C@H](Cc2ccc(OCC(=O)O)cc2)NC(=O)[C@H](CC(N)=O)NC(=O)[C@H]2C[C@H](O)CN2C(=O)[C@H](Cc2c[nH]c3ccccc23)NC(=O)[C@@H]2CC[C@@H](O)CN2C(=O)[C@H](Cc2ccncc2)NC1=O [SEQ ID NO. 3] (cyclo([4Pal][Pip(5R-OH)]W[dHyp]NY(Carboxymethyl)[Trp(7-Cl)][αMeS][Phe(4-CONH2)]Y(Carboxymethyl)[Sar][Trp(βS-Me,7-OMe)][X1][Nle])) |  | 0.04 nM | > 1000 nM | 0.5 nM | 
5 | CCCC[C@@H]1NC(=O)[C@@H]2CC[C@@H](C2)NC(=O)[C@H]([C@@H](C)c2c[nH]c3c(OC)cccc23)NC(=O)CN(C)C(=O)[C@H](Cc2ccc(O)cc2)NC(=O)[C@H](Cc2ccc(C(=O)O)cc2)NC(=O)[C@](C)(CO)NC(=O)[C@H](Cc2c[nH]c3c(Cl)cccc23)NC(=O)[C@H](Cc2ccncc2)NC(=O)[C@H](CC(N)=O)NC(=O)CN(CC)C(=O)[C@H](Cc2c[nH]c3ccccc23)NC(=O)[C@@H]2CNCCN2C(=O)[C@H](Cc2ccncc2)NC1=O [SEQ ID NO. 94] (cyclo([4Pal][Trp(7-Cl)][αMeS][Phe(4-COOH)]Y[Sar][Trp(βS-Me,7-OMe)][X1][Nle][4Pal][Pip(4-aza)]W[NEtG]N)) |  | 0.07 nM | > 1000 nM | 0.8 nM | 
6 | CCCC[C@@H]1NC(=O)CSC[C@@H](C(N)=O)NC(=O)[C@H]([C@@H](C)c2c[nH]c3c(OC)cccc23)NC(=O)CN(C)C(=O)[C@H](Cc2ccc(O)cc2)NC(=O)[C@H](Cc2ccc(C(=O)O)cc2)NC(=O)[C@](C)(CO)NC(=O)[C@H](Cc2c[nH]c3c(Cl)cccc23)NC(=O)[C@H](Cc2ccc(C(=O)O)cc2)NC(=O)[C@H](CC(N)=O)NC(=O)[C@H](CCC(=O)O)N(C)C(=O)[C@H](Cc2c[nH]c3ccccc23)NC(=O)[C@H](CO)N(C)C(=O)[C@H](Cc2ccc(C(N)=O)cc2)NC1=O [SEQ ID NO. 123] ({CH2CO}-[Nle][Phe(4-CONH2)][NMeS]W[NMeE]N[Phe(4-COOH)][Trp(7-Cl)][αMeS][Phe(4-COOH)]Y[Sar][Trp(βS-Me,7-OMe)]C-NH2; thioether N-14) |  | 0.32 nM | > 1000 nM | 4.1 nM | 
7 | CCCC[C@@H]1NC(=O)CSC[C@@H](C(N)=O)NC(=O)[C@H]([C@@H](C)c2c[nH]c3c(OC)cccc23)NC(=O)CN(C)C(=O)[C@H](Cc2ccc(O)cc2)NC(=O)[C@H](Cc2ccc(C(N)=O)cc2)NC(=O)[C@](C)(CO)NC(=O)[C@H](Cc2c[nH]c3c(Cl)cccc23)NC(=O)[C@H](Cc2ccncc2)NC(=O)[C@H](CC(N)=O)NC(=O)[C@H](CCC(=O)O)N(C)C(=O)[C@H](Cc2cn(C)c3ccccc23)NC(=O)[C@@H]2CC[C@@H](O)CN2C(=O)[C@H](Cc2ccncc2)NC1=O [SEQ ID NO. 151] ({CH2CO}-[Nle][4Pal][Pip(5R-OH)][Trp(1-Me)][NMeE]N[4Pal][Trp(7-Cl)][αMeS][Phe(4-CONH2)]Y[Sar][Trp(βS-Me,7-OMe)]C-NH2; thioether N-14) | 0.11 nM | 0.04 nM | > 1000 nM |  | 0.29 nM
8 | CCCC[C@@H]1NC(=O)CSC[C@@H](C(N)=O)NC(=O)[C@H]([C@@H](C)c2c[nH]c3c(OC)cccc23)NC(=O)CN(C)C(=O)[C@H](Cc2ccc(O)cc2)NC(=O)[C@H](Cc2ccc(C(=O)O)cc2)NC(=O)[C@](C)(CO)NC(=O)[C@H](Cc2c[nH]c3c(Cl)cccc23)NC(=O)[C@H](Cc2ccncc2)NC(=O)[C@H](CC(N)=O)NC(=O)[C@H](CCC(=O)O)N(C)C(=O)[C@H](Cc2c[nH]c3ncccc23)NC(=O)[C@@H]2CNCCN2C(=O)[C@H](CC23CC(C2)C3)NC1=O [SEQ ID NO. 33] ({CH2CO}-[Nle][Ala(1-bicyclo(1.1.1)pentyl)][Pip(4-aza)][Trp(7-aza)][NMeE]N[4Pal][Trp(7-Cl)][αMeS][Phe(4-COOH)]Y[Sar][Trp(βS-Me,7-OMe)]C-NH2; thioether N-14) |  | 0.3 nM | > 1000 nM | 6.8 nM | 
